We go through 18 compounds from patent US4294832A, “Tetrahydroisoquinoline compounds and a pharmaceutical composition thereof” (Tanabe Seiyaku Co., Ltd., priority 1979, dated 1981).

Values joined by “and” are separate entries in the source; they are usually repeats but may differ in a detail not shown here. Equal values may be shown once. Where a name gives a salt, the structure may show the parent alone. Read-outs that look alike come from different tables or passages of the source.

Test [1] has as its target T1, angiotensin-converting enzyme (ACE) isolated from pig's renal cortex (Sus scrofa, UniProt F1RRW5).
T1 construct: isolated from pig's renal cortex; from tissue; host or cells: pig renal cortex
T1 sequence (F1RRW5 34-1309): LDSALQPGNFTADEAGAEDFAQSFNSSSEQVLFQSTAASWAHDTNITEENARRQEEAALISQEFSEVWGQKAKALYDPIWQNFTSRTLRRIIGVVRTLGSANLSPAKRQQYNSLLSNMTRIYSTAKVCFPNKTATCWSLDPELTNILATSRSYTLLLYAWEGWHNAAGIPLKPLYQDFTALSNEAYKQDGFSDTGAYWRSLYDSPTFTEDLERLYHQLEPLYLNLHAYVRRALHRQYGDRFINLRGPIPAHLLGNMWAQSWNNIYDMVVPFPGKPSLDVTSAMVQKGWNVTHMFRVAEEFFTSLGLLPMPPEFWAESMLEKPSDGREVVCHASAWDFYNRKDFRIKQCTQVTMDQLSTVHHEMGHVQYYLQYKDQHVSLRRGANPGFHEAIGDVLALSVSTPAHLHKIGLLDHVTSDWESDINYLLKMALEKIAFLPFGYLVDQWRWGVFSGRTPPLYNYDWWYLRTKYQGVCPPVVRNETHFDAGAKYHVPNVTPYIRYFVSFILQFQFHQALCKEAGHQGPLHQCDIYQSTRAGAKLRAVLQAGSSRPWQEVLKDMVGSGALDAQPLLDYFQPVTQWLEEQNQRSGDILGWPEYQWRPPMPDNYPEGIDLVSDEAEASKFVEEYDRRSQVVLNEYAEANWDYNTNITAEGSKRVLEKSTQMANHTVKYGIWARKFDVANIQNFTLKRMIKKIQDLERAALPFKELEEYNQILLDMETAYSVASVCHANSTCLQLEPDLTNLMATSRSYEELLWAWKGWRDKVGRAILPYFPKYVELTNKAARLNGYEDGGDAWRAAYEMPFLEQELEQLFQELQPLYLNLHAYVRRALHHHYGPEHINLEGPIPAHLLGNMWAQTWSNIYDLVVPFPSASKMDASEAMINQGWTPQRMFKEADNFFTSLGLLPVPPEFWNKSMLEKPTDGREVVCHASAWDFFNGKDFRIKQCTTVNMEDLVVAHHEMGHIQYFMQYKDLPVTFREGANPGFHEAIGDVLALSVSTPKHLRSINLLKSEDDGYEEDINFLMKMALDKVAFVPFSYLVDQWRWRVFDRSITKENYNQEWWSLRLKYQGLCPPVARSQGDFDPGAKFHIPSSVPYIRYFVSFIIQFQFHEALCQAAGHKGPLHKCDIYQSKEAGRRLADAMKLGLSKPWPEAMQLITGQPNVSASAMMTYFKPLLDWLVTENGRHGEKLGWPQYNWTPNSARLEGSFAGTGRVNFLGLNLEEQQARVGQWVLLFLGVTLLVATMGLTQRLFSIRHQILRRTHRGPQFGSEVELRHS
In words: ACE-inhibitory activity in vitro (histidyl-leucine released from hippuryl-histidyl-leucine). Format: biochemical. The protocol:
ACE-inhibitory activity in vitro:
50 μl of a solution containing 0.01 mole/liter of hippuryl-histidyl-leucine (substrate) and 0-100 μl of a test compound solution were added to 300 μl of a 0.2M trishydrochloric acid buffer solution containing 0.2 mole/liter of sodium chloride. The total volume of said mixture was adjusted to 450 μl with water. Then, 50 μl of angiotensin -converting enzyme (ACE) isolated from pig's renal cortex were added to the mixture, and the mixture was allowed to stand at 37° C. for 20 minutes. The amount of histidyl-leucine produced from the substrate by the action of ACE was assayed microbiologically by the use of Leuconostoc mesenteroides P-60, and the ACE-inhibitory activity of the test compound was estimated therefrom.
*I50 = a dose required to induce 50% inhibition of the ACE activity

For test [2], the system named is angiotensin-converting enzyme (ACE). In words: ACE-inhibitory activity in vivo (pressor response to angiotensin I in anesthetized normotensive rats). Also noted: species or system rat. The conditions noted are these: 0.1 mg/kg i.v.; for Duration of activity: ACE inhibition in vivo; for ACE-inhibitory activity in vivo: percentage inhibition of ACE activity, angiotensin I 300 ng/kg i.v. As to the method:
ACE-inhibitory activity in vivo:
Normotensive rats weighing 300-400 g were anesthetized with urethane (1.5 g/kg, s.c.), and angiotensin I (300 ng/kg) was injected into the femoral vein of the rats. The pressor response to angiotensin I was measured with a pressure transducer connected to the carotid artery. Then, a test compound was injected intravenously thereto at a dose of 0.1 mg/kg, and angiotensin I (300 ng/kg) was further injected intravenously at intervals. The ACE-inhibitory activity of the test compound was estimated from the pressur responses to angiotensin I which were obtained before and after intravenous injection of the test compound.
*percentage inhibition of ACE activity in vivo

Test [3] relates to spontaneously hypertensive rats (SHR). In words: Hypotensive activity in SHR (systolic blood pressure, tail plethysmographic technique). The class given is in vivo, rat. The conditions noted are these: 50 mg/kg orally; for Decrease in blood pressure (-Δ mm Hg): SHR fasted overnight, systolic; for Duration of action: hypotensive action, SHR. The protocol: Hypotensive activity in SHR:
A test compound (dose: 50 mg/kg) suspended in an aqueous carboxymethylcellulose solution was administered orally to spontaneously hypertensive rats (SHR) fasted overnight. The systolic blood pressure of the rats was measured by the tail plethysmographic technique (The Journal of Laboratory and Clinical Medicine 78(1971), page 957). The hypotensive activity of the test compound was estimated from the decreased level of blood pressure.

Where [4] appears, read: dose required to induce 50% inhibition of the ACE activity, pig renal cortex ACE, 37° C., 20 minutes, read-out: ACE-inhibitory activity in vitro I50.

For `O=C(O)CCN(C(=O)N1Cc2ccccc2C[C@H]1C(=O)O)C1CC1` [3(S)-2-[N-cyclopropyl-N-(2-carboxyethyl)-carbamoyl]-1,2,3,4-tetrahydroisoquinoline-3-carboxylic acid di-dicyclohexylamine salt], the IC50 in test [1] (setting [4]) is 140 nM.

`CCCCOC(=O)CCN(CC)C(=O)N1Cc2ccccc2C[C@H]1C(=O)O` [3(S)-2-[N-ethyl-N-(2-n-butoxycarbonylethyl)carbamoyl]-1,2,3,4-tetrahydroisoquinoline-3-carboxylic acid L-lysine salt] registered a Duration of activity in test [2] of more than 60 min. Moreover, the “ACE-inhibitory activity in vivo” value in test [2] (0.1 mg/kg) is 80% and > 60%.

`CCCCOC(=O)CCN(C(=O)N1Cc2ccccc2C[C@H]1C(=O)O)C(C)C` [3(S)-2-[N-isopropyl-N-(2-n-butoxycarbonylethyl)carbamoyl]-1,2,3,4-tetrahydroisoquinoline-3-carboxylic acid L-lysine salt]: in test [2], the Duration of activity is more than 60 min and the “ACE-inhibitory activity in vivo” value is more than 60%.

As for `CCOC(=O)CCN(CC)C(=O)N1Cc2ccccc2C[C@H]1C(=O)O.NCCCC[C@H](N)C(=O)O` [3(S)-2-[N-ethyl-N-(2-n-ethoxycarbonylethyl)carbamoyl]-1,2,3,4-tetrahydroisoquinoline-3-carboxyleic acid L-lysine salt], in test [3], the “Decrease in blood pressure (-Δ mm Hg)” value turned out to be 25 mm Hg and the Duration of action was more than 6 h.

With `COC(=O)CCN(C(=O)N1Cc2ccccc2C[C@H]1C(=O)O)C(C)C` [3(S)-2-[N-isopropyl-N-(2-methoxycarbonylethyl)carbamoyl]-1,2,3,4-tetrahydroisoquinoline-3-carboxylic acid sodium salt], the Duration of activity in test [2] (sodium salt, 0.1 mg/kg) is more than 60 min.

`CCN(CCC(=O)O)C(=O)N1Cc2ccccc2C[C@H]1C(=O)O` [3(S)-2-[N-ethyl-N-2-carboxyethyl)carbamoyl]-1,2,3,4-tetrahydroisoquinoline-3-carboxylic acid di-sodium salt]: the IC50 in test [1] (setting [4]) stood at 21 nM.

In the case of `CCOC(=O)CCN(CC)C(=O)N1Cc2ccccc2C[C@H]1C(=O)O` [3(S)-2-[N-ethyl-N-(2-ethoxycarbonylethyl)carbamoyl]-1,2,3,4-tetrahydroisoquinoline-3-carboxylic acid 1/2 calcium salt], in test [3], the “Decrease in blood pressure (-Δ mm Hg)” value is reported as 26 mm Hg and the Duration of action is more than 6 h.

Take `CCCN(CCC(=O)O)C(=O)N1Cc2ccccc2C[C@H]1C(=O)O` [3(S)-2-[N-n-propyl-N-(2-carboxyethyl)carbamoyl]-1,2,3,4-tetrahydroisoquinoline-3-carboxylic acid 2 dicyclohexylamine salt]: in test [1] (setting [4]), the IC50 was determined as 550 nM.

`CN(CCC(=O)O)C(=O)N1Cc2ccccc2C[C@H]1C(=O)O` [3(S)-2-[N-methyl-N-(2-carboxyethyl)carbamoyl]-1,2,3,4-tetrahydroisoquinoline-3-carboxylic acid 2 dicyclohexylamine salt]: the IC50 in test [1] (setting [4]) came to 610 nM.

In the case of `CC(C)N(CCC(=O)O)C(=O)N1Cc2ccccc2C[C@H]1C(=O)O` [3(S)-2-[N-isopropyl-N-(2-carboxyethyl)carbamonyl]-1,2,3,4-tetrahydroisoquinoline-3-carboxylic acid di-L-lysine salt], the IC50 in test [1] (setting [4]) turned out to be 29 nM.

Turning to `COC(=O)CCN(C(=O)N1Cc2ccccc2C[C@H]1C(=O)O)C(C)C` [3(S)-2-[N-isopropyl-N-(2-methoxycarbonylethyl)carbamoyl]-1,2,3,4-tetrahydroisoquinoline-3-carboxylic acid L-lysine salt], the Duration of activity in test [2] (0.1 mg/kg) was in the range of 30 to 60 min. Moreover, in test [2], the “ACE-inhibitory activity in vivo” value is recorded as 40 - 60%. Besides, in test [3], the “Decrease in blood pressure (-Δ mm Hg)” value was determined as 36 mm Hg and the Duration of action was more than 6 h.

Take `C#CCN(CCC(=O)O)C(=O)N1Cc2ccccc2C[C@H]1C(=O)O` [3(S)-2-[N-propargyl-N -(2-carboxyethyl)carbamoyl]-1,2,3,4-tetrahydroisoquinoline-3-carboxylic acid di-L-lysine salt]: the IC50 in test [1] (setting [4]) is 35 nM.

Consider `CCOC(=O)CCN(C)C(=O)N1Cc2ccccc2C[C@H]1C(=O)O` [3(S)-2-[N-methyl-N-(2-ethoxycarbonylethyl)carbamoyl]-1,2,3,4-tetrahydroisoquinoline-3-carboxylic acid L-lysine salt], for which, in test [2], the Duration of activity was more than 60 min and the “ACE-inhibitory activity in vivo” value was 40 - 60%.

Take `CCOC(=O)CCN(C(=O)N1Cc2ccccc2C[C@H]1C(=O)O)C(C)C` [3(S)-2-[N-isopropyl-N-(2-ethoxycarbonylethyl)carbamoyl]-1,2,3,4-tetrahydroisoquinoline-3-carboxylic acid L-lysine salt]: in test [2], the Duration of activity was more than 60 min and the “ACE-inhibitory activity in vivo” value was more than 60%.

For `CCOC(=O)CCN(CC)C(=O)N1Cc2ccccc2C[C@H]1C(=O)O` [3(S)-2-[N-ethyl-N-(2-ethoxycarbonylethyl)carbamoyl]-1,2,3,4-tetrahydroisoquinoline-3-carboxylic acid L-lysine salt], in test [2], the Duration of activity is more than 60 min and the “ACE-inhibitory activity in vivo” value is listed as more than 60%.

Take `C=CCN(CCC(=O)O)C(=O)N1Cc2ccccc2C[C@H]1C(=O)O` [3(S)-2-[N-allyl-N-(2-carboxyethyl)carbamoyl]-1,2,3,4-tetrahydroisoquinoline-3-carboxylic acid di-L-lysine salt]: the IC50 in test [1] (setting [4]) was determined as 140 nM.

As to `CCN(CCC(=O)O)C(=O)N1Cc2ccccc2C[C@H]1C(=O)O` [3(S)-2-[N-ethyl-N-(2-carboxyethyl)carbamoyl]-1,2,3,4-tetrahydroisoquinoline-3-carboxylic acid calcium salt], the IC50 in test [1] (setting [4]) is 11 nM; in test [1] (in vitro, ACE isolated from pig's kidney, read-out: 50% inhibition of the activity of the enzyme at a concentration of) it was approximately 11 nM.

For the compound `CC(C)N(CCC(=O)O)C(=O)N1Cc2ccccc2C[C@H]1C(=O)O` [3(S)-2-[N-isopropyl-N-(2-carboxyethyl)carbamoyl]-1,2,3,4-tetrahydroisoquinoline-3-carboxylic acid di-dicyclohexylamine salt], in test [2], the Duration of activity was more than 60 min and the “ACE-inhibitory activity in vivo” value was more than 60%.
